Measured values published in PubChem BioAssay AID624027 (Broad Institute, 2012).
Active and inactive are the calls of the source.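 Rule for the calls: active = decreasing luminescence curve with half-maximal concentration at most twice the top tested dose, in every replicate run; inconclusive = replicate test runs disagree in their calls; inactive = every replicate run inactive, including responses in the opposite direction.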

What follows are compounds tested against Glycogen synthase kinase-3 beta (Homo sapiens) (UniProt P49841) (assay: GSK3beta inhibitors at high ATP, SAR follow-up, mechanism study for GSK3beta inhibitor project, biochemical, varied ATP levels, ADP-Glo luminescence, dry powder samples (AID 624027)). Conditions: GST-GSK3beta kinase, 100 uM ATP.
Chain of Glycogen synthase kinase-3 beta (Homo sapiens) (P49841 whole entry, looked up): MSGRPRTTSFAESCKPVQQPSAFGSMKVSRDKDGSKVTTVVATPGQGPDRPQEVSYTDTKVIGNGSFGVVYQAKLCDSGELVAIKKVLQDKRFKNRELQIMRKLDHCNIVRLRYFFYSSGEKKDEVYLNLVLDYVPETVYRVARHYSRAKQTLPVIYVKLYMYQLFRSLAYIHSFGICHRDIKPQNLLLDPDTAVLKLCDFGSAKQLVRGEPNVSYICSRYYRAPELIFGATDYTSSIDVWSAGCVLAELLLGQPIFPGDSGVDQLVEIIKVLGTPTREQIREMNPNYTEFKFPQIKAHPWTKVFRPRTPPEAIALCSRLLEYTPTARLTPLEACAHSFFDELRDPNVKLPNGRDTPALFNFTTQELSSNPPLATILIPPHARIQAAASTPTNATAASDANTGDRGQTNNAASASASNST

Question: Which AC50 does the source give for COc1ccccc1[C@@H]1C2=C(CC(C)(C)CC2=O)Nc2n[nH]c(C(F)(F)F)c21 here?
Answer: 143 nM

Question: With CC1(C)CC(=O)/C(=C\c2ccccc2C(F)(F)F)C(=Nc2cc(C(F)(F)F)[nH]n2)C1 as the compound, how does the AC50 read?
Answer: 25200 nM

Question: How did the AC50 turn out when CC1(C)CC(=O)C2=C(C1)Nc1n[nH]c(C(F)(F)F)c1C2c1ccccc1F (centres undefined) was run?
Answer: 932 nM

Question: How did the AC50 turn out when CC1(C)CC(=O)C2=C(C1)Nc1n[nH]c(C(F)(F)F)c1C2c1ccccc1 (centres undefined) was run?
Answer: 103 nM

Question: Cc1[nH]nc2c1[C@H](c1ccccc1C(F)(F)F)C1=C(CC(C)(C)CC1=O)N2 was tested. Which AC50 did it give?
Answer: 31900 nM

Question: How did the AC50 turn out when CC1(C)CC(=O)C2=C(C1)Nc1n[nH]c(C(F)(F)F)c1C2(C)c1ccccc1 (centres undefined) was run?
Answer: 41 nM

Question: With Cc1[nH]nc2c1C(c1ccc(C#N)cc1)C1=C(CC(C)(C)CC1=O)N2 (centres undefined) as the compound, how does the AC50 read?
Answer: 39800 nM

Question: Which AC50 does the source give for CC1(C)CC(=O)/C(=C\c2cccc(F)c2C(F)(F)F)C(=Nc2cc(C(F)(F)F)[nH]n2)C1 here?
Answer: 13200 nM

Question: With Cc1[nH]nc2c1C(c1cccc3nonc13)C1=C(CC(C)(C)CC1=O)N2 (centres undefined) as the compound, how does the AC50 read?
Answer: 231 nM

Question: CC1(C)CC(=O)C2=C(C1)Nc1n[nH]c(C(F)(F)F)c1C2c1cc(F)ccc1OC(F)(F)F (centres undefined) was tested. Which AC50 did it give?
Answer: 2340 nM

Question: For CC1(C)CC(=O)C2=C(C1)Nc1n[nH]c(C(F)(F)F)c1C2c1cc(F)ccc1C(F)(F)F (centres undefined), which AC50 is on record?
Answer: 209 nM

Question: Which AC50 does the source give for Cc1[nH]nc2c1[C@@H](c1ccccc1C(F)(F)F)C1=C(CC(C)(C)CC1=O)N2 here?
Answer: 231 nM

Same assay, conditions: GST-GSK3beta kinase, 100 uM ATP, at 46 µM (top of the series)

Question: For CN(C)Cc1cn(-c2ccccc2)nc1-c1ccccc1, which “activity change, negative = inhibition” value is on record?
Answer: inactive

Question: With CNC(=O)c1cn(-c2ccccc2)nc1-c1ccc(OC)cc1 as the compound, how does the “activity change, negative = inhibition” value read?
Answer: inactive
